In article PMC6222718, “Ethylenediamine Derived Carboxamides of Betulinic and Ursolic Acid as Potential Cytotoxic Agents” (Molecules : A Journal of Synthetic Chemistry and Natural …, 2018):

What was measured:
518A2 (melanoma) = assay: SRB cytotoxicity assay, 518A2; format: cell-based, human; conditions: for EC50: Homo sapiens, SRB assay, 96 h of treatment, 518A2; for Selectivity index (SI) 518A2: SI = EC50 (NIH 3T3)/EC50 (518A2)
Procedure: (§1) The cytotoxicity of ursolic and betulinic carboxamides 3–30 was determined in sulforhodamine B (SRB) assays.
(§2) The cell lines used were human cancer cell lines: 518A2 (melanoma), A2780 (ovarian carcinoma), HT29 (colon adenocarcinoma), MCF-7 (breast adenocarcinoma), 8505C (thyroid carcinoma) and non-malignant mouse fibroblasts NIH 3T3. Cultures were maintained as monolayers in RPMI 1640 medium with L-glutamine (Capricorn Scientific GmbH, Ebsdorfergrund, Germany) supplemented with 10% heat inactivated fetal bovineserum (Sigma-Aldrich Chemie GmbH, Steinheim, Germany) and penicillin/streptomycin (Capricorn Scientific GmbH, Ebsdorfergrund, Germany) at 37 °C in a humidified atmosphere with 5% CO2.
(§3) The cytotoxicity of the compounds was evaluated using the sulforhodamine-B (Kiton-Red S, ABCR) micro culture colorimetric assay. Cells were seeded into 96-well plates on day 0 at appropriate cell densities to prevent confluence of the cells during the period of experiment. After 24 h, the cells were treated with 6 different concentrations (1, 3, 7, 12, 20 and 30 µM) minimum. The final concentration of DMSO/DMF never exceeded 0.5%, which was non-toxic to the cells. After a 96 h treatment, the supernatant medium from the 96-well plates was discarded, the cells were fixed with 10% trichloroacetic acid (TCA) and allowed to rest at 4 °C. After 24 h fixation, the cells were washed in a strip washer and dyed with SRB solution (100 µL, 0.4% in 1% acetic acid) for about 20 min. After dying, the plates were washed four times with 1% acetic acid to remove the excess of the dye and allowed to air-dry overnight. Tris base solution (200 µL, 10 mM) was added to each well and absorbance was measured at λ = 570 nm using a 96-well plate reader (Tecan Spectra, Crailsheim, Germany). The EC50 values were averaged from three independent experiments performed each in triplicate calculated from semi logarithmic dose response curves applying a non-linear 4P Hills-slope equation (GraphPad Prism5; variables top and bottom were set to 100 and 0, respectively).

[1] = system: A2780 (ovarian carcinoma); assay: SRB cytotoxicity assay, A2780; format: cell-based, human; conditions: for EC50: Homo sapiens, SRB assay, 96 h of treatment, A2780; for Selectivity index (SI) A2780: SI = EC50 (NIH 3T3)/EC50 (A2780)
Procedure: as §1, §2, §3

[2] = system: 8505C (thyroid carcinoma); assay: SRB cytotoxicity assay, 8505C; format: cell-based, human; conditions: for EC50: Homo sapiens, SRB assay, 96 h of treatment, 8505C; for Selectivity index (SI) 8505C: SI = EC50 (NIH 3T3)/EC50 (8505C)
Procedure: as §1, §2, §3

[3] = system: HT29 (colon adenocarcinoma); assay: SRB cytotoxicity assay, HT29; format: cell-based, human; conditions: for EC50: Homo sapiens, HT-29, SRB assay, 96 h of treatment, HT29; for Selectivity index (SI) HT29: SI = EC50 (NIH 3T3)/EC50 (HT29)
Procedure: as §1, §2, §3

[4] = system: non-malignant mouse fibroblasts NIH 3T3; assay: SRB cytotoxicity assay, NIH 3T3; format: cell-based; conditions: NIH3T3, 96 h of treatment
Procedure: as §1, §2, §3

[5] = system: MCF-7 (breast adenocarcinoma); assay: SRB cytotoxicity assay, MCF-7; format: cell-based, human; conditions: for EC50: Homo sapiens, MCF7, SRB assay, 96 h of treatment, MCF-7; for Selectivity index (SI) MCF-7: SI = EC50 (NIH 3T3)/EC50 (MCF-7)
Procedure: as §1, §2, §3

Compound	melting point	EC50 (518A2 (melanoma))	Selectivity index (SI) 518A2 (518A2 (melanoma))	EC50 [1]	Selectivity index (SI) A2780 [1]	EC50 [2]	Selectivity index (SI) 8505C [2]	EC50 [3]	Selectivity index (SI) HT29 [3]	EC50 [4]	EC50 [5]	Selectivity index (SI) MCF-7 [5]
CC(=O)O[C@H]1CC[C@@]2(C)C(CC[C@]3(C)C2CC=C2C4[C@@H](C)[C@H](C)CC[C@]4(C(=O)NCCOCCN)CC[C@]23C)C1(C)C (stereo partly drawn) [Compound 9, (3β)-N-[2-(2-Aminoethoxy)ethyl]-3-acetyloxy-urs-12-en-28-amide]	91 to 94 °C	3.5 ± 0.6 µM	0.89	3.4 ± 0.5 µM	0.91	5.8 ± 0.4 µM	0.53	1.6 ± 0.1 µM	1.93	3.1 ± 0.4 µM	2.3 ± 0.4 µM	1.35
C=C(C)C1CC[C@]2(C(=O)NCCN(C)C)CC[C@]3(C)C(CCC4[C@@]5(C)CC[C@H](OC(C)=O)C(C)(C)C5CC[C@]43C)C12 (stereo partly drawn) [Compound 18, (3β)-N-[2-(Dimethylamino)ethyl]-3-acetyloxy-lup-20(29)-en-28-amide]	108 to 110 °C	1.3 ± 0.1 µM	0.77	1.1 ± 0.05 µM	0.91	1.4 ± 0.15 µM	0.71	0.3 ± 0.02 µM	3.33	1 ± 0.4 µM	1 ± 0.3 µM	1.00
C=C(C)C1CC[C@]2(C(=O)NCCN3CCCC3)CC[C@]3(C)C(CCC4[C@@]5(C)CC[C@H](OC(C)=O)C(C)(C)C5CC[C@]43C)C12 (stereo partly drawn) [Compound 19, (3β)-N-(2-Pyrrolidin-1-ylethyl)-3-acetyloxy-lup-20(29)-en-28-amide]	143 to 145 °C	1.5 ± 0.1 µM	0.80	1.4 ± 0.09 µM	0.86	1.6 ± 0.09 µM	0.75	0.5 ± 0.08 µM	2.40	1.2 ± 0.07 µM	1.2 ± 0.2 µM	1.00
C=C(C)C1CC[C@]2(C(=O)NCCN3CCCCC3)CC[C@]3(C)C(CCC4[C@@]5(C)CC[C@H](OC(C)=O)C(C)(C)C5CC[C@]43C)C12 (stereo partly drawn) [Compound 20, (3β)-N-(2-Piperidin-1-ylethyl)-3-acetyloxy-lup-20(29)-en-28-amide]	124 to 127 °C	3.1 ± 0.3 µM	0.39	1.6 ± 0.2 µM	0.75	3 ± 0.36 µM	0.40	0.8 ± 0.1 µM	1.50	1.2 ± 0.2 µM	1.5 ± 0.5 µM	0.80
C=C(C)C1CC[C@]2(C(=O)NCCN3CCNCC3)CC[C@]3(C)C(CCC4[C@@]5(C)CC[C@H](OC(C)=O)C(C)(C)C5CC[C@]43C)C12 (stereo partly drawn) [Compound 21, (3β)-N-(2-Piperazin-1-ylethyl)-3-acetyloxy-lup-20(29)-en-28-amide]	107 to 110 °C	2.5 ± 0.7 µM	0.40	1.5 ± 0.06 µM	0.67	1.1 ± 0.09 µM	0.91	0.6 ± 0.3 µM	1.67	1 ± 0.05 µM	1.9 ± 0.1 µM	0.53
C=C(C)C1CC[C@]2(C(=O)NCCCCN)CC[C@]3(C)C(CCC4[C@@]5(C)CC[C@H](OC(C)=O)C(C)(C)C5CC[C@]43C)C12 (stereo partly drawn) [Compound 22, (3β)-N-(4-Aminobutyl)-3-acetyloxy-lup-20(29)-en-28-amide]	133 to 135 °C	1 ± 0.03 µM	0.60	1.1 ± 0.03 µM	0.55	1.4 ± 0.05 µM	0.43	0.6 ± 0.05 µM	1.00	0.6 ± 0.04 µM	0.8 ± 0.04 µM	0.75

The next lines start with results.

melting point	Compound	EC50 (518A2 (melanoma))	Selectivity index (SI) 518A2 (518A2 (melanoma))	EC50 [1]	Selectivity index (SI) A2780 [1]	EC50 [2]	Selectivity index (SI) 8505C [2]	EC50 [3]	Selectivity index (SI) HT29 [3]	EC50 [4]	EC50 [5]	Selectivity index (SI) MCF-7 [5]
139 to 142 °C	C[C@@H]1CC[C@]2(C(=O)NCCN)CC[C@]3(C)C(=CCC4[C@@]5(C)CC[C@H](O)C(C)(C)C5CC[C@]43C)C2[C@H]1C (stereo partly drawn) [Compound 10, (3β)-N-(2-Aminoethyl)-3-hydroxy-urs-12-en-28-amide]	3.7 ± 0.5 µM	1.05	3.3 ± 0.1 µM	1.18	3.7 ± 0.4 µM	1.05	2 ± 0.1 µM	1.95	3.9 ± 0.1 µM	3.2 ± 0.3 µM	1.22
270 to 273 °C (dec.)	C[C@@H]1CC[C@]2(C(=O)NCCN(C)C)CC[C@]3(C)C(=CCC4[C@@]5(C)CC[C@H](O)C(C)(C)C5CC[C@]43C)C2[C@H]1C (stereo partly drawn) [Compound 11, (3β)-N-[2-(Dimethylamino)ethyl]-3-hydroxy-urs-12-en-28-amide]	6.6 ± 0.3 µM	1.02	4.3 ± 0.5 µM	1.56	7.3 ± 0.2 µM	0.92	3 ± 0.2 µM	2.23	6.7 ± 1.3 µM	4.2 ± 0.9 µM	1.60
263 to 266 °C (dec.)	C[C@@H]1CC[C@]2(C(=O)NCCN3CCCC3)CC[C@]3(C)C(=CCC4[C@@]5(C)CC[C@H](O)C(C)(C)C5CC[C@]43C)C2[C@H]1C (stereo partly drawn) [Compound 12, (3β)-N-(2-Pyrrolidin-1-ylethyl)-3-hydroxy-urs-12-en-28-amide]	5.5 ± 0.1 µM	1.13	3.3 ± 0.3 µM	1.88	5.7 ± 0.2 µM	1.09	2.6 ± 0.3 µM	2.38	6.2 ± 0.4 µM	3.5 ± 1 µM	1.77
120 to 124 °C	C[C@@H]1CC[C@]2(C(=O)NCCN3CCCCC3)CC[C@]3(C)C(=CCC4[C@@]5(C)CC[C@H](O)C(C)(C)C5CC[C@]43C)C2[C@H]1C (stereo partly drawn) [Compound 13, (3β)-N-(2-Piperidin-1-ylethyl)-3-hydroxy-urs-12-en-28-amide]	12.6 ± 0.2 µM	0.28	7.6 ± 0.6 µM	0.46	11.1 ± 0.3 µM	0.32	8.4 ± 0.7 µM	0.42	3.5 ± 0.6 µM	11.1 ± 1.4 µM	0.32
214 to 217 °C	C[C@@H]1CC[C@]2(C(=O)NCCN3CCNCC3)CC[C@]3(C)C(=CCC4[C@@]5(C)CC[C@H](O)C(C)(C)C5CC[C@]43C)C2[C@H]1C (stereo partly drawn) [Compound 14, (3β)-N-(2-Piperazin-1-ylethyl)-3-hydroxy-urs-12-en-28-amide]	7 ± 0.4 µM	0.94	4.9 ± 0.4 µM	1.35	7.8 ± 0.5 µM	0.85	2.8 ± 0.4 µM	2.36	6.6 ± 0.6 µM	4.4 ± 0.1 µM	1.50
177 to 180 °C	C[C@@H]1CC[C@]2(C(=O)NCCCCN)CC[C@]3(C)C(=CCC4[C@@]5(C)CC[C@H](O)C(C)(C)C5CC[C@]43C)C2[C@H]1C (stereo partly drawn) [Compound 15, (3β)-N-(4-Aminobutyl)-3-hydroxy-urs-12-en-28-amide]	9.3 ± 0.1 µM	0.60	5.4 ± 1.4 µM	1.04	10.8 ± 1.2 µM	0.52	2.1 ± 0.3 µM	2.67	5.6 ± 0.3 µM	5.5 ± 1.1 µM	1.02
126 to 129 °C	C[C@@H]1CC[C@]2(C(=O)NCCOCCN)CC[C@]3(C)C(=CCC4[C@@]5(C)CC[C@H](O)C(C)(C)C5CC[C@]43C)C2[C@H]1C (stereo partly drawn) [Compound 16]	9.9 ± 0.2 µM	0.76	6.5 ± 1.4 µM	1.15	10.6 ± 1.1 µM	0.71	3.1 ± 0.3 µM	2.42	7.5 ± 0.8 µM	6.3 ± 0.6 µM	1.19
